Starred links: 1 amine or outer side, 2 acyl side, 3 side chain; linkers in the order of their positions; H or OH if unused. Non-standard residues stand in square brackets, D forms with d. Residues, ends and D or L forms follow the SMILES beside them. Groups on a side chain read outwards from the residue. *: point of attachment. C20 diacid = O=C(O)CCCCCCCCCCCCCCCCCCC(=O)*; C18 diacid = O=C(O)CCCCCCCCCCCCCCCCC(=O)*; γGlu = O=C(O)[C@H](CCC(=O)[*:2])N[*:1]; Aib = CC(C)(N)C(=O)O
Test: PK measurements for half life assessment in pigs
Type: in vivo, pig
Settings: male, large white, pig, plasma, sc, single subcutaneous injection, time from tmax to half of Cmax, typically mean of four animals
Method: Male large white pigs receive a single subcutaneous injection of the test compound at the start of study (0 hours). Repeated blood samples were taken from the pig over the proceeding 168 hours and plasma separated and stored at −20 to −80° C. Plasma concentration of the test compound was quantified using a radioimmunoassay or mass spectrum analysis. Time taken from tmax to half of Cmax was calculated and represents the half-life (t½) of the compound. Typically, the presented t½ is the mean of four separate animals.

With `CC[C@H](C)[C@H](NC(=O)[C@H](Cc1ccccc1)NC(=O)[C@H](CCC(=O)O)NC(=O)[C@H](CCC(N)=O)NC(=O)[C@H](C)NC(=O)[C@H](CCCNC(=N)N)NC(=O)[C@H](CCCCN)NC(=O)[C@H](C)NC(=O)[C@H](CC(=O)O)NC(=O)[C@H](CC(C)C)NC(=O)[C@H](Cc1ccc(O)cc1)NC(=O)[C@H](CCCCN)NC(=O)[C@H](CO)NC(=O)[C@H](Cc1ccc(O)cc1)NC(=O)[C@H](CC(=O)O)NC(=O)[C@H](CO)NC(=O)[C@@H](NC(=O)[C@H](Cc1ccccc1)NC(=O)[C@@H](NC(=O)CNC(=O)[C@H](Cc1c[nH]cn1)NC(=O)C(C)(C)NC(=O)[C@@H](N)Cc1c[nH]cn1)[C@@H](C)O)[C@@H](C)O)C(=O)N[C@@H](CCC(=O)O)C(=O)N[C@@H](Cc1c[nH]c2ccccc12)C(=O)N[C@@H](CC(C)C)C(=O)N[C@@H](CC(C)C)C(=O)N[C@@H](CCC(N)=O)C(=O)N[C@@H](CO)C(=O)N[C@@H](Cc1c[nH]cn1)C(=O)N[C@@H](Cc1c[nH]cn1)C(=O)N[C@@H](CCC(N)=O)C(=O)N[C@@H](CCC(N)=O)C(=O)N[C@@H](Cc1c[nH]cn1)C(=O)N[C@@H](CCC(=O)O)C(=O)N[C@@H](CO)C(=O)N1CCC[C@H]1C(=O)N1CCC[C@H]1C(=O)N1CCC[C@H]1C(=O)N[C@@H](CCCCNC(=O)[C@H](Cc1c[nH]cn1)NC(=O)[C@H](CC(N)=O)NC(=O)CC[C@H](NC(=O)CCCCCCCCCCCCCCCCC(=O)O)C(=O)O)C(=O)O` [Example 649] (H-H[Aib]HGTFTSDYSKYLDAKRAQEFIEWLLQSHHQQHESPPPK([His-Asn-γGlu-C18 diacid])-OH) as the molecule, how does the half-life read?
The half-life was 84 h.

Which half-life does the source give for `CC[C@H](C)[C@H](NC(=O)[C@H](Cc1ccccc1)NC(=O)[C@H](CCC(=O)O)NC(=O)[C@H](Cc1c[nH]cn1)NC(=O)[C@H](C)NC(=O)[C@H](CCCNC(=N)N)NC(=O)[C@H](CCCCN)NC(=O)[C@H](C)NC(=O)[C@H](CC(=O)O)NC(=O)[C@H](CC(C)C)NC(=O)[C@H](Cc1ccc(O)cc1)NC(=O)[C@H](CCCCN)NC(=O)[C@H](CO)NC(=O)[C@H](Cc1ccc(O)cc1)NC(=O)[C@H](CC(=O)O)NC(=O)[C@H](CO)NC(=O)[C@@H](NC(=O)[C@H](Cc1ccccc1)NC(=O)[C@@H](NC(=O)CNC(=O)[C@H](Cc1c[nH]cn1)NC(=O)C(C)(C)NC(=O)[C@@H](N)Cc1c[nH]cn1)[C@@H](C)O)[C@@H](C)O)C(=O)N[C@@H](CCC(=O)O)C(=O)N[C@@H](Cc1c[nH]c2ccccc12)C(=O)N[C@@H](CC(C)C)C(=O)N[C@@H](CC(C)C)C(=O)N[C@@H](CCC(N)=O)C(=O)N[C@@H](CO)C(=O)N[C@@H](Cc1c[nH]cn1)C(=O)N[C@@H](CCC(N)=O)C(=O)N[C@@H](CCC(N)=O)C(=O)N[C@@H](Cc1c[nH]cn1)C(=O)N[C@@H](CCC(=O)O)C(=O)N[C@@H](CO)C(=O)N1CCC[C@H]1C(=O)N1CCC[C@H]1C(=O)N1CCC[C@H]1C(=O)NCC(=O)N[C@@H](CCCCNC(=O)[C@H](CC(N)=O)NC(=O)CC[C@H](NC(=O)CCCCCCCCCCCCCCCCCCC(=O)O)C(=O)O)C(=O)O` [Example 652] (H-H[Aib]HGTFTSDYSKYLDAKRAHEFIEWLLQSHQQHESPPPGK([Asn-γGlu-C20 diacid])-OH) here?
The half-life was 116 h.

With `CC[C@H](C)[C@H](NC(=O)[C@H](Cc1ccccc1)NC(=O)[C@H](CCC(=O)O)NC(=O)[C@H](CCCNC(=N)N)NC(=O)[C@H](C)NC(=O)[C@H](CCCNC(=N)N)NC(=O)[C@H](CCCCN)NC(=O)[C@H](C)NC(=O)[C@H](CC(=O)O)NC(=O)[C@H](CC(C)C)NC(=O)[C@H](Cc1ccc(O)cc1)NC(=O)[C@H](CCCCN)NC(=O)[C@H](CO)NC(=O)[C@H](Cc1ccc(O)cc1)NC(=O)[C@H](CC(=O)O)NC(=O)[C@H](CO)NC(=O)[C@@H](NC(=O)[C@H](Cc1ccccc1)NC(=O)[C@@H](NC(=O)CNC(=O)[C@H](Cc1c[nH]cn1)NC(=O)C(C)(C)NC(=O)[C@@H](N)Cc1c[nH]cn1)[C@@H](C)O)[C@@H](C)O)C(=O)N[C@@H](CCC(=O)O)C(=O)N[C@@H](Cc1c[nH]c2ccccc12)C(=O)N[C@@H](CC(C)C)C(=O)N[C@@H](CC(C)C)C(=O)N[C@@H](CCC(N)=O)C(=O)N[C@@H](CO)C(=O)N[C@@H](Cc1c[nH]cn1)C(=O)N[C@@H](CCC(N)=O)C(=O)N[C@@H](CCC(N)=O)C(=O)N[C@@H](Cc1c[nH]cn1)C(=O)N[C@@H](CCC(=O)O)C(=O)N[C@@H](CO)C(=O)N1CCC[C@H]1C(=O)N1CCC[C@H]1C(=O)N1CCC[C@H]1C(=O)NCC(=O)N[C@@H](CCCCNC(=O)[C@H](CC(N)=O)NC(=O)CC[C@H](NC(=O)CCCCCCCCCCCCCCCCCCC(=O)O)C(=O)O)C(=O)O` [Example 704] (H-H[Aib]HGTFTSDYSKYLDAKRAREFIEWLLQSHQQHESPPPGK([Asn-γGlu-C20 diacid])-OH) as the molecule, how does the half-life read?
Its half-life is 96 h.

For `CC[C@H](C)[C@H](NC(=O)[C@H](Cc1ccccc1)NC(=O)[C@H](CCC(=O)O)NC(=O)[C@H](CCCNC(=N)N)NC(=O)[C@H](C)NC(=O)[C@H](CCCNC(=N)N)NC(=O)[C@H](CCCCN)NC(=O)[C@H](C)NC(=O)[C@H](CC(=O)O)NC(=O)[C@H](CC(C)C)NC(=O)[C@H](Cc1ccc(O)cc1)NC(=O)[C@H](CCCCN)NC(=O)[C@H](CO)NC(=O)[C@H](Cc1ccc(O)cc1)NC(=O)[C@H](CC(=O)O)NC(=O)[C@H](CO)NC(=O)[C@@H](NC(=O)[C@H](Cc1ccccc1)NC(=O)[C@@H](NC(=O)CNC(=O)[C@H](Cc1c[nH]cn1)NC(=O)C(C)(C)NC(=O)[C@@H](N)Cc1c[nH]cn1)[C@@H](C)O)[C@@H](C)O)C(=O)N[C@@H](CCC(=O)O)C(=O)N[C@@H](Cc1c[nH]c2ccccc12)C(=O)N[C@@H](CC(C)C)C(=O)N[C@@H](CC(C)C)C(=O)N[C@@H](CCC(N)=O)C(=O)N[C@@H](CO)C(=O)N[C@@H](Cc1c[nH]cn1)C(=O)N[C@@H](CCC(N)=O)C(=O)N[C@@H](CCC(N)=O)C(=O)N[C@@H](Cc1c[nH]cn1)C(=O)N1CCC[C@H]1C(=O)N[C@@H](CO)C(=O)N1CCC[C@H]1C(=O)N1CCC[C@H]1C(=O)N1CCC[C@H]1C(=O)NCC(=O)N[C@@H](CCCCNC(=O)[C@H](CC(N)=O)NC(=O)CC[C@H](NC(=O)CCCCCCCCCCCCCCCCCCC(=O)O)C(=O)O)C(=O)O` [Example 705] (H-H[Aib]HGTFTSDYSKYLDAKRAREFIEWLLQSHQQHPSPPPGK([Asn-γGlu-C20 diacid])-OH), which half-life is on record?
The half-life was 84 h.

Which half-life does the source give for `CC[C@H](C)[C@H](NC(=O)[C@H](Cc1ccccc1)NC(=O)[C@H](CCC(=O)O)NC(=O)[C@H](CCC(N)=O)NC(=O)[C@H](C)NC(=O)[C@H](CCCNC(=N)N)NC(=O)[C@H](CCCCN)NC(=O)[C@H](C)NC(=O)[C@H](CC(=O)O)NC(=O)[C@H](CC(C)C)NC(=O)[C@H](Cc1ccc(O)cc1)NC(=O)[C@H](CCCCN)NC(=O)[C@H](CO)NC(=O)[C@H](Cc1ccc(O)cc1)NC(=O)[C@H](CC(=O)O)NC(=O)[C@H](CO)NC(=O)[C@@H](NC(=O)[C@H](Cc1ccccc1)NC(=O)[C@@H](NC(=O)CNC(=O)[C@H](Cc1c[nH]cn1)NC(=O)C(C)(C)NC(=O)[C@@H](N)Cc1c[nH]cn1)[C@@H](C)O)[C@@H](C)O)C(=O)N[C@@H](CCC(=O)O)C(=O)N[C@@H](Cc1c[nH]c2ccccc12)C(=O)N[C@@H](CC(C)C)C(=O)N[C@@H](CC(C)C)C(=O)N[C@@H](CCC(N)=O)C(=O)N[C@@H](CO)C(=O)N[C@@H](Cc1c[nH]cn1)C(=O)N[C@@H](CCC(N)=O)C(=O)N[C@@H](CCC(N)=O)C(=O)N[C@@H](Cc1c[nH]cn1)C(=O)N1CCC[C@H]1C(=O)N[C@@H](CO)C(=O)N1CCC[C@H]1C(=O)N1CCC[C@H]1C(=O)N1CCC[C@H]1C(=O)NCC(=O)N[C@@H](CCCCNC(=O)[C@H](CC(N)=O)NC(=O)CC[C@H](NC(=O)CCCCCCCCCCCCCCCCCCC(=O)O)C(=O)O)C(=O)O` [Example 706] (H-H[Aib]HGTFTSDYSKYLDAKRAQEFIEWLLQSHQQHPSPPPGK([Asn-γGlu-C20 diacid])-OH) here?
Its half-life is 110 h.

Source: patent publication US12516095B2, “Peptide hormone analogues” (IP2IPO INNOVATIONS LIMITED, priority 2019, dated 2026)
